The test system of this series is Male Sprague-Dawley rats. Conditions: 72 hours after IP injection of oxaliplatin. The protocol: Male Sprague-Dawley rats (Charles River Lab, France), weighing 175 to 200 grams, were placed in a cage with food and water ad libitum, in a temperature-controlled environment at 22° C. with a 12 h/12 h day/night cycle. The experiments were conducted under blind conditions in a calm room by the same experimenter, while taking care to comply with the regulations on animal experimentation.
This low-temperature immersion test made it possible to measure the hypersensitivity to cold in the animals. The bottom third of the rat's tail was immersed in a temperature-controlled bath 10° C. until it was removed or until the “cut-off” set at 30 seconds (Necker and Hellon. 1978 Pain. 4: 231-242).
The experimental data was analyzed using the software program Sigma STAT, version 3.0 for Windows (STAT32 Software Inc., San Diego, Calif.). The kinetics of the reaction times to the temperature-based stimulation were analyzed using a two-factor variance analysis followed by a multiple comparison test to study the change over time. […] The significance threshold was P<0.05.

Turning to `O=C(O)C(=O)O.[NH-][C@@H]1CCCC[C@H]1[NH-].[Pt+2]` [oxaliplatin], where the note is “FIG. 1”, the “effect on cold sensitivity threshold (10° C.)” value is given as “reduced the cold sensitivity threshold”. In addition, for the setting “tail immersed in water at 10° C., untreated rat around 12 seconds, cut-off 30 seconds”, the “time after which the rat removed its tail” value was determined as 7 s.

The values above are taken from patent publication US9511045B2 (UNIVERSITE D'AUVERGNE CLERMONT I, priority 2010, dated 2016).
